{
  "source": "paper PMC5218480",
  "about": "(PLoS ONE, 2017)",
  "system": "MV-4-11 cells",
  "assay": "Gene expression microarray analysis (Affymetrix PrimeView) and GSEA",
  "format": "cell-based, human",
  "design": "RFU PODN (11730768_x_at) / Fold change /veh PODN (11730768_x_at) / RFU LINC00158 (11744669_a_at) / Fold change /veh LINC00158 (11744669_a_at) / RFU DUSP10 (11751237_a_at) / Fold change /veh DUSP10 (11751237_a_at) / RFU ID3 (11757404_x_at) / Fold change /veh ID3 (11757404_x_at) / RFU PLEKHG5 (11737974_s_at) / Fold change /veh PLEKHG5 (11737974_s_at) / RFU LRRC4B (11730491_at) / Fold change /veh LRRC4B (11730491_at) / RFU GIMAP4 (11747438_a_at) / Fold change /veh GIMAP4 (11747438_a_at) / RFU KRT8 (11758183_x_at) / Fold change /veh KRT8 (11758183_x_at) / RFU CNN1 (11734310_a_at) / Fold change /veh CNN1 (11734310_a_at) / RFU VPS37D (11726825_at) / Fold change /veh VPS37D (11726825_at) / RFU C10orf10 (11716522_x_at) / Fold change /veh C10orf10 (11716522_x_at) / RFU KIR2DL2 /// KIR2DL4 /// KIR2DL5A /// KIR2DL5B /// KIR2DS1 /// KIR2DS2 /// KIR2DS3 /// KIR2DS4 /// KIR3DL3 /// KIR3DL3 /// KIR3DS1 (11738374_at) / Fold change /veh KIR2DL2 /// KIR2DL4 /// KIR2DL5A /// KIR2DL5B /// KIR2DS1 /// KIR2DS2 /// KIR2DS3 /// KIR2DS4 /// KIR3DL3 /// KIR3DL3 /// KIR3DS1 (11738374_at) / RFU C1QL1 (11718748_at) / Fold change /veh C1QL1 (11718748_at) / RFU TMPRSS4 (11747572_a_at) / Fold change /veh TMPRSS4 (11747572_a_at) / RFU HAMP (11756126_x_at) / Fold change /veh HAMP (11756126_x_at) / RFU RNFT2 (11725882_a_at) / Fold change /veh RNFT2 (11725882_a_at) / RFU NR4A2 (11747474_a_at) / Fold change /veh NR4A2 (11747474_a_at) / RFU ABCC12 (11746883_a_at) / Fold change /veh ABCC12 (11746883_a_at) / RFU TMEM136 (11760407_x_at) / Fold change /veh TMEM136 (11760407_x_at) / RFU CLDN22 /// WWC2 (11732394_at) / Fold change /veh CLDN22 /// WWC2 (11732394_at) / RFU HLA-DPB1 (11760878_x_at) / Fold change /veh HLA-DPB1 (11760878_x_at) / RFU SPINT1 (11716480_a_at) / Fold change /veh SPINT1 (11716480_a_at) / RFU GAP43 (11754022_s_at) / Fold change /veh GAP43 (11754022_s_at) / RFU A4GNT (11735810_at) / Fold change /veh A4GNT (11735810_at) / RFU PRB3 (11715151_x_at) / Fold change /veh PRB3 (11715151_x_at) / RFU TUBB4B (11761932_at) / Fold change /veh TUBB4B (11761932_at) / RFU CAPN14 (11732068_a_at) / Fold change /veh CAPN14 (11732068_a_at) / RFU TMCC2 (11721928_a_at) / Fold change /veh TMCC2 (11721928_a_at) / RFU IRGQ (11745062_a_at) / Fold change /veh IRGQ (11745062_a_at) / RFU FAM174B (11720279_a_at) / Fold change /veh FAM174B (11720279_a_at) / RFU TMPRSS4 (11748680_a_at) / Fold change /veh TMPRSS4 (11748680_a_at) / RFU FAM212B (11763350_a_at) / Fold change /veh FAM212B (11763350_a_at) / RFU PLEKHG5 (11743358_a_at) / Fold change /veh PLEKHG5 (11743358_a_at) / RFU ZSCAN30 (11745921_a_at) / Fold change /veh ZSCAN30 (11745921_a_at) / RFU CMKLR1 (11741424_a_at) / Fold change /veh CMKLR1 (11741424_a_at) / RFU LOC101060620 /// MAPK8IP1 (11723275_at) / Fold change /veh LOC101060620 /// MAPK8IP1 (11723275_at) / RFU SPTSSB (11747773_x_at) / Fold change /veh SPTSSB (11747773_x_at) / RFU PRSS12 (11739890_at) / Fold change /veh PRSS12 (11739890_at) / RFU BIN1 (11741810_x_at) / Fold change /veh BIN1 (11741810_x_at) / RFU WNT11 (11732464_a_at) / Fold change /veh WNT11 (11732464_a_at) / RFU C10orf10 (11716521_a_at) / Fold change /veh C10orf10 (11716521_a_at) / RFU C5orf56 (11738089_at) / Fold change /veh C5orf56 (11738089_at) / RFU CYB561 (11721691_x_at) / Fold change /veh CYB561 (11721691_x_at) / RFU ANKRD19P (11752326_a_at) / Fold change /veh ANKRD19P (11752326_a_at) / RFU OR2T12 /// OR2T33 /// OR2T8 (11738714_s_at) / Fold change /veh OR2T12 /// OR2T33 /// OR2T8 (11738714_s_at) / RFU VCAN (11748164_a_at) / Fold change /veh VCAN (11748164_a_at) / RFU JSRP1 (11732532_at) / Fold change /veh JSRP1 (11732532_at) / RFU KRTAP10-11 (11738290_x_at) / Fold change /veh KRTAP10-11 (11738290_x_at) / RFU MYO3A (11730013_a_at) / Fold change /veh MYO3A (11730013_a_at) / RFU EBF3 (11725865_a_at) / Fold change /veh EBF3 (11725865_a_at) / RFU CAMK2N1 (11719241_x_at) / Fold change /veh CAMK2N1 (11719241_x_at) / RFU C5orf56 (11738088_a_at) / Fold change /veh C5orf56 (11738088_a_at) / RFU OLFML3 (11715873_a_at) / Fold change /veh OLFML3 (11715873_a_at) / RFU LOC100653217 /// NTM (11731650_a_at) / Fold change /veh LOC100653217 /// NTM (11731650_a_at) / RFU MAPK11 (11762145_a_at) / Fold change /veh MAPK11 (11762145_a_at) / RFU FIZ1 (11724087_x_at) / Fold change /veh FIZ1 (11724087_x_at) / RFU OASL (11726364_x_at) / Fold change /veh OASL (11726364_x_at) / RFU SOX15 (11748057_x_at) / Fold change /veh SOX15 (11748057_x_at) / RFU CD79A (11719716_a_at) / Fold change /veh CD79A (11719716_a_at) / RFU HIST1H1D (11736915_at) / Fold change /veh HIST1H1D (11736915_at) / RFU CASKIN2 (11723855_a_at) / Fold change /veh CASKIN2 (11723855_a_at) / RFU LOC730098 (11760151_x_at) / Fold change /veh LOC730098 (11760151_x_at) / RFU OR4N2 (11742367_at) / Fold change /veh OR4N2 (11742367_at) / RFU PRRT2 (11749266_a_at) / Fold change /veh PRRT2 (11749266_a_at) / RFU SNX32 (11753110_a_at) / Fold change /veh SNX32 (11753110_a_at) / RFU CDHR5 (11726645_a_at) / Fold change /veh CDHR5 (11726645_a_at) / RFU RCAN1 (11760418_a_at) / Fold change /veh RCAN1 (11760418_a_at) / RFU FAM167A (11723789_a_at) / Fold change /veh FAM167A (11723789_a_at) / RFU FAM26E (11764081_at) / Fold change /veh FAM26E (11764081_at) / RFU ISYNA1 (11749810_s_at) / Fold change /veh ISYNA1 (11749810_s_at) / RFU ACY1 (11761880_at) / Fold change /veh ACY1 (11761880_at) / RFU 11764098_at / Fold change /veh 11764098_at / RFU SAMD14 (11745864_x_at) / Fold change /veh SAMD14 (11745864_x_at) / RFU NPB (11741838_a_at) / Fold change /veh NPB (11741838_a_at) / RFU TMPRSS6 (11731388_a_at) / Fold change /veh TMPRSS6 (11731388_a_at) / RFU KRTAP10-2 (11738614_at) / Fold change /veh KRTAP10-2 (11738614_at) / RFU ARHGAP8 /// PRR5-ARHGAP8 (11727945_x_at) / Fold change /veh ARHGAP8 /// PRR5-ARHGAP8 (11727945_x_at) / RFU KRTAP5-7 /// NADSYN1 (11734609_at) / Fold change /veh KRTAP5-7 /// NADSYN1 (11734609_at) / RFU RASL12 (11751679_a_at) / Fold change /veh RASL12 (11751679_a_at) / RFU CDKN2B (11736163_a_at) / Fold change /veh CDKN2B (11736163_a_at) / RFU PRF1 (11729649_at) / Fold change /veh PRF1 (11729649_at) / RFU, ZNF638 /// ZNF638-IT1 / Fold change vs veh, ZNF638 /// ZNF638-IT1 / RFU, PANK3 / Fold change vs veh, PANK3 / RFU, SH3YL1 / Fold change vs veh, SH3YL1 / RFU, ZEB2 / Fold change vs veh, ZEB2 / RFU, NRIP1 / Fold change vs veh, NRIP1 / RFU, PTTG1IP / Fold change vs veh, PTTG1IP / RFU, CAPN2 / Fold change vs veh, CAPN2 / RFU, MED14 / Fold change vs veh, MED14 / RFU, SNORA58 / Fold change vs veh, SNORA58 / RFU, C1orf63 / Fold change vs veh, C1orf63 / RFU, LRRFIP1 / Fold change vs veh, LRRFIP1 / RFU, NDUFAF7 / Fold change vs veh, NDUFAF7 / RFU, SLC12A2 / Fold change vs veh, SLC12A2 / RFU, IBTK / Fold change vs veh, IBTK / RFU, ESF1 / Fold change vs veh, ESF1 / Fold change vs veh, TMEM50B / RFU, TAOK1 / Fold change vs veh, TAOK1 / RFU, ACBD3 / Fold change vs veh, ACBD3 / RFU, TMA16 / Fold change vs veh, TMA16 / RFU, RWDD3 / Fold change vs veh, RWDD3 / RFU, BCAT1 / Fold change vs veh, BCAT1 / RFU, EDEM3 / Fold change vs veh, EDEM3 / RFU, TMEM33 / Fold change vs veh, TMEM33 / RFU, WDR75 / Fold change vs veh, WDR75 / RFU, AHCTF1 / Fold change vs veh, AHCTF1 / RFU, TFRC / Fold change vs veh, TFRC / RFU, ZDHHC17 / Fold change vs veh, ZDHHC17 / RFU, NOM1 / Fold change vs veh, NOM1 / RFU, ARL8B / Fold change vs veh, ARL8B / RFU, ZBTB11 / Fold change vs veh, ZBTB11 / RFU, TAMM41 / Fold change vs veh, TAMM41 / RFU, KIAA1704 /// LOC100996395 / Fold change vs veh, KIAA1704 /// LOC100996395 / RFU, ING1 / Fold change vs veh, ING1 / RFU, TRMT61B / Fold change vs veh, TRMT61B / RFU, FUBP3 / Fold change vs veh, FUBP3 / RFU, TP53 / Fold change vs veh, TP53 / RFU, TNKS2 / Fold change vs veh, TNKS2 / RFU, ZFP14 / Fold change vs veh, ZFP14 / RFU, ACTR2 / Fold change vs veh, ACTR2 / RFU, PPP3R1 / Fold change vs veh, PPP3R1 / RFU, PIK3R1 / Fold change vs veh, PIK3R1 / RFU, HNRNPA1 / Fold change vs veh, HNRNPA1 / RFU, RNF170 / Fold change vs veh, RNF170 / RFU, ZNF28 / Fold change vs veh, ZNF28 / RFU, RNGTT / Fold change vs veh, RNGTT / RFU, OGT / Fold change vs veh, OGT / RFU, BRD1 / Fold change vs veh, BRD1 / RFU, MARS / Fold change vs veh, MARS / RFU, ZNF655 / Fold change vs veh, ZNF655 / RFU, FAHD1 / Fold change vs veh, FAHD1 / RFU, BDP1 / Fold change vs veh, BDP1 / RFU, LRRCC1 / Fold change vs veh, LRRCC1 / RFU, ARID1A / Fold change vs veh, ARID1A / RFU, ZNF146 / Fold change vs veh, ZNF146 / RFU, ZNF330 / Fold change vs veh, ZNF330 / RFU, GPN3 / Fold change vs veh, GPN3 / RFU, C9orf123 / Fold change vs veh, C9orf123 / RFU, N4BP2L2 / Fold change vs veh, N4BP2L2 / RFU, ARFIP1 / Fold change vs veh, ARFIP1 / RFU, FAM179B / Fold change vs veh, FAM179B / RFU, BCL10 / Fold change vs veh, BCL10 / RFU, UHRF1BP1L / Fold change vs veh, UHRF1BP1L / RFU, BET1 / Fold change vs veh, BET1 / RFU, CNOT2 / Fold change vs veh, CNOT2 / RFU, ZNF268 / Fold change vs veh, ZNF268 / Fold change vs veh, ZNF507 / RFU, DGCR2 / Fold change vs veh, DGCR2 / RFU, WDSUB1 / Fold change vs veh, WDSUB1 / Fold change vs veh, HSP90B1 /// MIR3652 / RFU, ADSS / Fold change vs veh, ADSS / RFU, GK / Fold change vs veh, GK / RFU, ZNF148 / Fold change vs veh, ZNF148 / RFU, TAF9 / Fold change vs veh, TAF9 / RFU, SLC1A5 / Fold change vs veh, SLC1A5 / RFU, SLMO2 / Fold change vs veh, SLMO2 / RFU, ABCC4 / Fold change vs veh, ABCC4 / RFU, LOC101060439 /// RAP1B / Fold change vs veh, LOC101060439 /// RAP1B / RFU, RFX7 / Fold change vs veh, RFX7 / RFU, GTPBP10 / Fold change vs veh, GTPBP10 / RFU, CNEP1R1 / Fold change vs veh, CNEP1R1 / RFU, BIVM-ERCC5 /// ERCC5 / Fold change vs veh, BIVM-ERCC5 /// ERCC5 / RFU, ILF3 / Fold change vs veh, ILF3 / RFU 11762660_at / Fold change /veh 11762660_at / RFU VCAN (11757783_s_at) / Fold change /veh VCAN (11757783_s_at) / RFU DDX43 (11728927_at) / Fold change /veh DDX43 (11728927_at) / RFU KRT8 (11758188_x_at) / Fold change /veh KRT8 (11758188_x_at) / RFU NKD1 (11759106_at) / Fold change /veh NKD1 (11759106_at) / RFU SRD5A1 (11742802_a_at) / Fold change /veh SRD5A1 (11742802_a_at) / RFU TPSAB1 /// TPSB2 (11721975_s_at) / Fold change /veh TPSAB1 /// TPSB2 (11721975_s_at) / RFU GSTM3 (11746129_a_at) / Fold change /veh GSTM3 (11746129_a_at) / RFU IL23R (11737362_x_at) / Fold change /veh IL23R (11737362_x_at) / RFU TMEM51 (11727254_a_at) / Fold change /veh TMEM51 (11727254_a_at) / RFU PIWIL2 (11732686_x_at) / Fold change /veh PIWIL2 (11732686_x_at) / RFU ORM1 (11744905_x_at) / Fold change /veh ORM1 (11744905_x_at) / RFU CCDC152 (11743942_at) / Fold change /veh CCDC152 (11743942_at) / RFU ECM1 (11717891_a_at) / Fold change /veh ECM1 (11717891_a_at) / RFU IL23R (11748794_a_at) / Fold change /veh IL23R (11748794_a_at) / RFU TNFAIP8L3 (11732012_x_at) / Fold change /veh TNFAIP8L3 (11732012_x_at) / RFU MBOAT4 (11741988_at) / Fold change /veh MBOAT4 (11741988_at) / RFU 11764193_at / Fold change /veh 11764193_at / RFU TMEM53 (11763286_at) / Fold change /veh TMEM53 (11763286_at) / RFU MAGEB2 (11727129_at) / Fold change /veh MAGEB2 (11727129_at) / RFU TMEM200A (11744735_a_at) / Fold change /veh TMEM200A (11744735_a_at) / RFU CCDC152 (11751479_a_at) / Fold change /veh CCDC152 (11751479_a_at) / RFU FAM211A (11726209_a_at) / Fold change /veh FAM211A (11726209_a_at) / RFU RGS16 (11746705_a_at) / Fold change /veh RGS16 (11746705_a_at) / RFU VCAN (11755009_s_at) / Fold change /veh VCAN (11755009_s_at) / RFU RHOB (11743442_s_at) / Fold change /veh RHOB (11743442_s_at) / RFU RGS16 (11720943_a_at) / Fold change /veh RGS16 (11720943_a_at) / RFU RGS16 (11720944_at) / Fold change /veh RGS16 (11720944_at) / RFU, VPS4B / Fold change vs veh, VPS4B / RFU, CREB1 / Fold change vs veh, CREB1 / RFU, DNAJC13 / Fold change vs veh, DNAJC13 / RFU, GNAQ / Fold change vs veh, GNAQ / RFU, CDK5R1 / Fold change vs veh, CDK5R1 / RFU, ZRANB3 / Fold change vs veh, ZRANB3 / RFU, CUL4A / Fold change vs veh, CUL4A / RFU, CCNY / Fold change vs veh, CCNY / RFU, UFL1 / Fold change vs veh, UFL1 / RFU, COG3 / Fold change vs veh, COG3 / RFU, DIAPH2 / Fold change vs veh, DIAPH2 / RFU, SKA2 / Fold change vs veh, SKA2 / RFU, AFF3 / Fold change vs veh, AFF3 / RFU, LMF1 / Fold change vs veh, LMF1 / RFU, IPO11 / Fold change vs veh, IPO11 / RFU, DFFB / Fold change vs veh, DFFB / RFU, FOXP1 / Fold change vs veh, FOXP1 / RFU, CARD8 / Fold change vs veh, CARD8 / RFU, STRN3 / Fold change vs veh, STRN3 / RFU, ADK / Fold change vs veh, ADK / RFU, RASSF2 / Fold change vs veh, RASSF2 / RFU, WIPF1 / Fold change vs veh, WIPF1 / RFU, LARP1B / Fold change vs veh, LARP1B / RFU, RASA1 / Fold change vs veh, RASA1 / RFU, RB1 / Fold change vs veh, RB1 / RFU, PPFIA1 / Fold change vs veh, PPFIA1 / RFU, MAT2A / Fold change vs veh, MAT2A / RFU, CCT5 / Fold change vs veh, CCT5 / RFU, WDR92 / Fold change vs veh, WDR92 / RFU, CUX1 / Fold change vs veh, CUX1 / RFU, TTC7A / Fold change vs veh, TTC7A / RFU, TMEM135 / Fold change vs veh, TMEM135 / RFU, DEPTOR / Fold change vs veh, DEPTOR / RFU, CPM / Fold change vs veh, CPM / RFU, DNAJB6 / Fold change vs veh, DNAJB6 / RFU, CACNA2D3 / Fold change vs veh, CACNA2D3 / RFU, DTX4 / Fold change vs veh, DTX4 / RFU, TFCP2 / Fold change vs veh, TFCP2 / RFU, GMCL1 /// GMCL1P1 / Fold change vs veh, GMCL1 /// GMCL1P1 / RFU, AEBP2 / Fold change vs veh, AEBP2 / RFU, SNHG1 /// SNORD22 /// SNORD25 /// SNORD26 /// SNORD27 /// SNORD28 /// SNORD29 /// SNORD31 / Fold change vs veh, SNHG1 /// SNORD22 /// SNORD25 /// SNORD26 /// SNORD27 /// SNORD28 /// SNORD29 /// SNORD31 / Fold change (Aza/veh), C12orf56 (ProbeSet 11735607_a_at) / Fold change (ACY-1035/veh), C12orf56 (ProbeSet 11735607_a_at) / Fold change (Aza/veh), FGFR1OP (ProbeSet 11751329_s_at) / Fold change (ACY-1035/veh), FGFR1OP (ProbeSet 11751329_s_at) / Fold change (Aza/veh), VPS36 (ProbeSet 11739960_a_at) / Fold change (ACY-1035/veh), VPS36 (ProbeSet 11739960_a_at) / RFU SYPL1 (11715823_x_at) / Fold change /veh SYPL1 (11715823_x_at) / RFU IGFBP7 (11715501_s_at) / Fold change /veh IGFBP7 (11715501_s_at) / RFU REEP3 (11722064_at) / Fold change /veh REEP3 (11722064_at) / RFU IGLL1 (11728026_x_at) / Fold change /veh IGLL1 (11728026_x_at): dose or concentration left out as unconfirmed",
  "conditions": "MV-4-11 cells, 48 hours",
  "data": [
    {"molecule": "Nc1ncn([C@@H]2O[C@H](CO)[C@@H](O)[C@H]2O)c(=O)n1", "note": "[azacitidine]", "values": [
      {"measurement": "RFU PODN (11730768_x_at)", "result": 27.35, "unit": "RFU"}
    ]}
  ]
}
